Here are results for twelve compounds from patent US10870875B2, “Metalloprotein compositions” (Commonwealth Scientific and Industrial Research Organisation, priority 2014, dated 2020).

Assay [1] has as its target T1, recombinant honeybee (Apis mellifera) silk protein AmelF3, unmodified, SEQ ID NO: 39 (Apis mellifera, UniProt A0ACM8QI31).
T1 construct: sponges and films
Briefly: Binding of macrocycles/chelates to AmelF3 sponges or films (colour retained after washing, UV/Vis). Particulars: qualitative; for Binding properties: sponge, macrocycle in excess, retention of colour after washing; for binding to silk protein (in words): sponge or film. As for the experimental part:
Full length, recombinant honeybee silk proteins (AmelF3) without affinity purification tags, were produced by fermentation in Escherichia coli as described in Weisman et al. (2010). Full length, recombinant Weaver Ant/Green Ant (Oecophylla smaragdina) silk proteins (GA1, GA2, GA3, GA4) without affinity purification tags, were produced by fermentation in Escherichia coli following the same procedures as outlined in Weisman et al. (2010).
(§1) AmelF3 sponges were prepared as described in example 1. […] The colour change observed with honeybee silk indicates a change in the coordination of the iron metal centre within the haem group, producing a material with a similar coordination to red haemoglobin. The colour was not removed by extensive washing with 70% methanol, 0.1M HCl or 0.1M NaCl.
An embodiment of the composition of the present invention was formed by co-drying a solution of AmelF3 and haem b. Briefly, 2 mg haem b and 20 mg AmelF3 silk sponge was dissolved in 1 mL of HFIP overnight at room temperature. The solution was aliquoted into either a cuvette or 24-well plate and dried at room temperature. The dried film was soaked overnight in 70% methanol to make the film insoluble in water.
Alternatively, haem b was ‘leached’ into a pre-formed film. The AmelF3 material was formed as described in example 1. The silk material was soaked in a solution of haem b (0.5 mg/mL; haem b in excess) in 70% methanol solution for between 1 and 48 hours followed by washing with 70% methanol to remove any unbound haem b and dried at room temperature.
AmelF3 films with different ratios of haem b to AmelF3 were prepared by co-drying haem and AmelF3 HFIP solutions. At low haem loadings (haem:protein molar ratios of 1:1 and 1:2), a sharp Soret peak at 404 nm was observed, indicative of all the haem being coordinated (FIG. 3). As the concentration of haem b relative to the protein was increased, the Soret peak broadened and shifted to lower wavelengths indicating an increase in the amount of uncoordinated haem (FIG. 3).
(§2) The ability of sponges generated from recombinant AmelF3 to bind a range of macrocyles was tested by adding a solution of the macrocmacrocycle containing an excess of the macrocycle to be tested to the AmelF3 sponge and observing the colour of the sponge and whether the sponge retained colour after washing. The strength of macrocycle binding was assessed qualitatively by assessing the intensity of the colour retained by the sponge after washing. Strong binding to the sponge refers to the finding that the macrocycle cannot be washed out with aqueous methanol, organic solvents, 0.1 M HCl or 0.1 M NaOH.
(§3) Films generated from recombinant honeybee silk protein AmelF3 containing dicyanocobyrinic acid heptamethyl ester were prepared as described in example 3. UV/Vis spectrum were recorded for a film generated from recombinant AmelF3 containing dicyanocobyrinic acid heptamethyl ester and a solution of dicyanocobyrinic acid heptamethyl ester without AmelF3 (FIG. 8).

The target in assay [2] is T2, Apis mellifera AmelF3 (SEQ ID NO: 39) variant Tyr76Ala (Apis mellifera, UniProt A0ACM8QI31, Y95A).
T2 construct: sponge or film
The experiment in a line: Binding of chelates to AmelF3 Tyr76Ala sponges or films. The following applies: sponge washed with aqueous methanol, qualitative. Here is the method:
Site directed mutagenesis of honeybee silk proteins was carried using methods known to the person skilled in the art. For example, to generate AmelF3 Tyr76Ala, the forward primer 5′-[…]-3′ (SEQ ID NO: 80) with the corresponding reverse primer was employed and site directed mutagenesis was carried out using Pfx 50 DNA polymerase from Invitrogen following the Pfx50 manufactures instructions. All AmelF3 mutants were expressed and purified using a similar procedure as the unmodified AmelF3 silk protein. To generate AmelF3 Tyr76His, the forward primer 5′-[…]-3′ (SEQ ID NO: 81) with the corresponding reverse primer was employed. To generate AmelF3 Ala97His, the forward primer 5′-[…]-3′ (SEQ ID NO: 82) was used.
To test whether Tyr76 was indeed the coordinating ligand, the present inventors replaced Tyr76 with an alanine using site directed mutagenesis of the AmelF3 silk gene.

The test system of another assay is AmelF3 in film. The experiment in a line: Binding of dicyanocobyrinic acid heptamethyl ester to AmelF3 film (UV/Vis). Particulars: peak shift from 370 to 360. Set-up: species or system Apis mellifera. Here is the method: as §3
Assay [3] concerns the target T3, recombinant honeybee (Apis mellifera) silk protein AmelF3, SEQ ID NO: 39, containing bound haem b (film) (Apis mellifera, UniProt A0ACM8QI31).
T3 sequence (A0ACM8QI31 20-335): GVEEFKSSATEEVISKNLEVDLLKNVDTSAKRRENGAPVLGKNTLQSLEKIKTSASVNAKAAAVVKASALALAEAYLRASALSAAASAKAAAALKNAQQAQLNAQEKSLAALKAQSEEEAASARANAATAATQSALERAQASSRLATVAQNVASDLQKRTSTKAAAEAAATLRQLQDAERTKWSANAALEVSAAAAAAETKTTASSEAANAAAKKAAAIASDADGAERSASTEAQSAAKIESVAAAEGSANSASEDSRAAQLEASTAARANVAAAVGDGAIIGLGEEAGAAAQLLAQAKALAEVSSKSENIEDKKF
The experiment in a line: NO binding to reduced AmelF3-haem b film (UV/Vis). Particulars: NO added as diethylamine NONOate to dithionite-reduced film, 50 mM phosphate pH 7; decrease in absorbance at 420 nm, sigmoidal fit modified from Hill equation; read-out: dissociation constant. An excerpt: A. UV/Vis spectra obtained when silk protein films generated from recombinant honeybee silk protein AmelF3 were bound to increasing NO concentrations. B. Ratio change of absorbance change at 420 nm as NO concentrations are increased. Either the decrease in absorbance at 420 nm or increase in absorbance at 390 nm can be used. The decrease in absorbance at 420 nm can be converted into the fraction of nitric oxide binding site occupied by NO and plotted against NO concentration, and fitted to a sigmoidal curve modified from the Hill equation with a dissociation constant of 6.7 μM and a limit of detection of ˜1 μM.
AmelF3-haem b film was used as the porphyrin-silk film. Freshly prepared sodium dithionite (100 mM) in 50 mM phosphate buffer (pH 7) were used as the reducing agent. 10-100 μL was added to a 50 mM phosphate buffer (pH 7) covering the porphyrin-silk film. Sodium persulfate was used at the oxidising agent a similar manner to sodium dithionite. […] Changes in the UV/Vis spectrum were monitored to determine redox states and measure NO binding (FIGS. 10A and 10B). […]
Exposure to increasing NO concentration caused the Soret peak to shift from 421 nm to 395 nm. From 0-7 μM, there was a linear relationship between the decrease in absorbance at 421 nm and the concentration of NO, with a limit of detection for NO of 1 μM.

Assay [4] relates to materials generated from recombinant honeybee silk proteins (AmelF3 sponge). Briefly: Binding of macrocycles to recombinant AmelF3 honeybee silk sponges, judged by colour retained after washing. Particulars: excess macrocycle in solution, intensity of colour retained after washing. More on the design: species or system Apis mellifera. Here is the method:
as §1, §2

The structures appear in SMILES notation.

T2 sequence (A0ACM8QI31 entry or part of it Y95A): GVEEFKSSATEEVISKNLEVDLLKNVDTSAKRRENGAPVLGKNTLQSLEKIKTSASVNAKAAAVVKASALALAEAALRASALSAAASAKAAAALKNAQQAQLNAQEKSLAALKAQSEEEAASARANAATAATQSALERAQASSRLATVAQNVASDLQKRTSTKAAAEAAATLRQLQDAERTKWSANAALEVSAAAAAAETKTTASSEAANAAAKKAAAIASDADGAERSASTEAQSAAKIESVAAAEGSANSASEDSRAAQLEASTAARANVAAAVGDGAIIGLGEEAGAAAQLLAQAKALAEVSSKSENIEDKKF

For `C=Cc1c(C)c2cc3[nH]c(cc4nc(cc5nc(cc1[nH]2)C(C)=C5CCC(=O)OC)C(CCC(=O)OC)=C4C)c(C)c3C=C`, the Binding properties result in assay [1] is given as “Does not bind”.
Regarding `COC(=O)CC[C@@H]1C2=NC(=C\C3=NC(=C(/C)C4=N[C@@](C)([C@@H]5[N-]/C(=C\2C)[C@](C)(CCC(=O)OC)[C@H]5CC(=O)OC)[C@@](C)(CC(=O)OC)[C@@H]4CCC(=O)OC)/[C@@](C)(CC(=O)OC)[C@@H]3CCC(=O)OC)/C1(C)C.[C-]#N.[C-]#N.[Co+3]` [Dicyanocobyrinic acid heptamethyl ester, dicyanocobyrinic acid heptamethyl ester], the “binding to silk protein (in words)” value in assay [1] is “strongly blind to AmelF3”; in assay [2] it was “did not bind”.
On to `COC(=O)CC[C@@H]1C2=NC(=C\C3=NC(=C(/C)C4=N[C@@](C)([C@@H]5[N-]/C(=C\2C)[C@](C)(CCC(=O)OC)[C@H]5CC(=O)OC)[C@@](C)(CC(=O)OC)[C@@H]4CCC(=O)OC)/[C@@](C)(CC(=O)OC)[C@@H]3CCC(=O)OC)/C1(C)C.[C-]#N.[C-]#N.[Co+3]` [Dicyanocobyrinic acid heptamethyl ester], for which, in the assay with AmelF3 in film, the “binding to AmelF3 in film” value is “strongly blind”.
In the case of `[N]=O` [NO, nitric oxide], the Kd in assay [3] was 6.7 µM.
Regarding `O=S(=O)(O)c1ccc2c(c1)-c1nc-2nc2[nH]c(nc3nc(nc4[nH]c(n1)c1ccc(S(=O)(=O)O)cc41)-c1ccc(S(=O)(=O)O)cc1-3)c1ccc(S(=O)(=O)O)cc21.[Zn+2]` [Zn phthalocyanine tetrasulfonic acid, zinc phthalocyanine tetrasulfonic acid], in assay [1], the “binding to silk protein (in words)” value is given as “can bind”.
As to `C=CC1=C(C)c2cc3[nH]c(cc4nc(cc5[nH]c(cc1n2)c(C)c5CCC(=O)O)C(CCC(=O)O)=C4C)c(C)c3C=C` [drawing 1], the Binding properties entry in assay [1] and in assay [4] was “Strongly binds to silk” throughout.
As for `CCC1=C(C)c2cc3[nH]c(cc4[nH]c(cc5nc(cc1n2)C(C)=C5CC)c(C)c4CC)c(C)c3CC` [drawing 2], in assay [1], the Binding properties entry is recorded as “Does not bind”.
For the compound `COC(=O)CCC1=C(C)c2cc3[nH]c(cc4nc(cc5[nH]c(cc1n2)c(CCC(=O)OC)c5C)C(S(=O)(=O)O)=C4C)c(S(=O)(=O)O)c3C` [drawing 4], the Binding properties entry in assay [1] and in assay [4] was “Weak binding” in each case.
For `C1=CC2C3=NC(=N\C4N/C(=N\C5=NC(=N\C6N/C(=N\3)c3ccccc36)/C3C=CC=CC53)c3ccccc34)/C2C=C1` (stereo not drawn) [drawing 5, Phthalocyanine], the “binding to silk protein (in words)” value in assay [1] is recorded as “no binding is obtained”.
In the case of `C1=CC2C3=NC(=N\C4N/C(=N\C5=NC(=N\C6N/C(=N\3)c3ccccc36)/C3C=CC=CC53)c3ccccc34)/C2C=C1` (stereo not drawn) [drawing 5], the Binding properties result in assay [4] is “Does not bind”.
Consider `CCC1=C(C)c2cc3[nH]c(cc4[nH]c(cc5nc(cc1n2)C(C)=C5CC)c(C)c4CC)c(C)c3CC` [etioporphryin I], for which, in assay [1], the “binding to silk protein (in words)” value is recorded as “no binding is obtained”.
Consider `O=S(=O)(O)c1ccc2c(c1)-c1nc-2nc2[nH]c(nc3nc(nc4[nH]c(n1)c1ccc(S(=O)(=O)O)cc41)-c1ccc(S(=O)(=O)O)cc1-3)c1ccc(S(=O)(=O)O)cc21` [phthalocyanine tetrasulfonic acid], for which the Binding properties entry in assay [1] is listed as “Strongly binds”.
